Tested on: severe COVID-19 patients
Assay: Observation of seriously ill COVID-19 ICU patients treated with orally inhaled solnatide (Example 2)
Experimental: Community patients with serious health conditions were admitted to a local hospital for examination. In some of these patients, COVID-19 was confirmed by positive testing for SARS-CoV-2 by nasopharyngeal swab and real-time RT-PCR.
Following worsening of conditions, seriously ill COVID-19 patients were admitted to the ICU of the hospital.
These patients were treated with placebo only in addition to standard critical care treatment and life support.
During an observation period of 7 days, patient-centred clinical parameters which reflect the severity of COVID-19 were recorded.
The SOFA score was used to track a patient's status during the stay in an intensive care unit (ICU) to determine the extent of the patient's organ function or rate of failure.

Substance: cyclo-CGQRETPEGAEAKPWYC [solnatide]
- mean SOFA score at end of treatment period (COVID-19 ICU patients, orally inhaled solnatide twice daily plus standard critical care, after 7-day treatment period, FIG. 1): 8
- mean SOFA score at start of treatment period (COVID-19 ICU patients, orally inhaled solnatide twice daily plus standard critical care, start of 7-day treatment, FIG. 1): 12
- mean body temperature, change during treatment (COVID-19 ICU patients, orally inhaled solnatide twice daily, 7-day treatment period, elevated at initiation, FIG. 3): decreased
- mean dynamic lung compliance at end of treatment period (COVID-19 ICU patients, orally inhaled solnatide twice daily, after 7-day treatment period, FIG. 2): 50 mL/cm H2O
- mean dynamic lung compliance at start of treatment period (COVID-19 ICU patients, orally inhaled solnatide twice daily, start of 7-day treatment, FIG. 2): approx. 35 mL/cm H2O
- patients who died within 28 days after onset of COVID-19 symptoms (severe COVID-19 patients treated with solnatide, comparator cohort: 3 patients died): none

Source: patent US20250241978A1, “PEPTIDE FOR PREVENTION OR TREATMENT OF COVID-19” (priority 2020, published 2025)
